Measured values published in ChEMBL document CHEMBL5291721, “A preclinical secondary pharmacology resource illuminates target-adverse drug reaction associations of marketed drugs” (Nat Commun, 2023).

What was measured:
[1] = target: Sodium-dependent noradrenaline transporter (Homo sapiens, UniProt P23975)
[2] = target: Gamma-aminobutyric acid receptor subunit alpha-1 (Rattus norvegicus, UniProt P62813)
[3] = target: Prostaglandin G/H synthase 1 (Homo sapiens, UniProt P23219); assay type: functional
Sequence of Prostaglandin G/H synthase 1 (P23219 whole entry): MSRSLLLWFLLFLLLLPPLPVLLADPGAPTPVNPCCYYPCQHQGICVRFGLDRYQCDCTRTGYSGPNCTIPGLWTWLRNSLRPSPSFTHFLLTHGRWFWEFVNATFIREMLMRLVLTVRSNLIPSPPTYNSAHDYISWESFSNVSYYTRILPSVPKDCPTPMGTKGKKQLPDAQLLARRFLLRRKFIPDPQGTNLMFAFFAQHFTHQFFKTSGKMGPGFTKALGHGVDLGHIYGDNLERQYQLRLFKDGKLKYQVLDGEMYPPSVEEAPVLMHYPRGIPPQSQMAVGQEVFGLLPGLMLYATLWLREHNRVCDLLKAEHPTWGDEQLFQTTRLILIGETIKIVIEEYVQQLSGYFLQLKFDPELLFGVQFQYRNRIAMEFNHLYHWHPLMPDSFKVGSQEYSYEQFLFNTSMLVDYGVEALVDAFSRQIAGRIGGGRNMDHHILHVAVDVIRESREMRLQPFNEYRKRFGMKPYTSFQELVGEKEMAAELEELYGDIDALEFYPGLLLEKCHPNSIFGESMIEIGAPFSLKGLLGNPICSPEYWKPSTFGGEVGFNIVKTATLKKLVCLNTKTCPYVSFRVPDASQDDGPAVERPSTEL

[4] = target: T1, Alpha-2A adrenergic receptor (Homo sapiens, UniProt P08913)
T1 sequence (P08913 whole entry): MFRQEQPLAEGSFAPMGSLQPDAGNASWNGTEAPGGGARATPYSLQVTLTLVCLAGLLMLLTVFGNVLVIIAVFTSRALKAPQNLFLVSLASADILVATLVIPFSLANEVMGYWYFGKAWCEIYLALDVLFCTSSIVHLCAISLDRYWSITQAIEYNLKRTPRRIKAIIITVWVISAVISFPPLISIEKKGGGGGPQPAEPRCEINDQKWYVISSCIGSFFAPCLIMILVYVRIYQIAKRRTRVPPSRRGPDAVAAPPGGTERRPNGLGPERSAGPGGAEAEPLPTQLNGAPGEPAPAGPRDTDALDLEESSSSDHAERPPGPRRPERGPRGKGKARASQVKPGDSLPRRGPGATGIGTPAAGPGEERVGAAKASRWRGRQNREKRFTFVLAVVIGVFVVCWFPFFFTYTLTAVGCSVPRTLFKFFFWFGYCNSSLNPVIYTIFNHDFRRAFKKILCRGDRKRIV

[5] = target: T2, Muscarinic acetylcholine receptor M2 (Homo sapiens, UniProt P08172)
T2 sequence (P08172 whole entry): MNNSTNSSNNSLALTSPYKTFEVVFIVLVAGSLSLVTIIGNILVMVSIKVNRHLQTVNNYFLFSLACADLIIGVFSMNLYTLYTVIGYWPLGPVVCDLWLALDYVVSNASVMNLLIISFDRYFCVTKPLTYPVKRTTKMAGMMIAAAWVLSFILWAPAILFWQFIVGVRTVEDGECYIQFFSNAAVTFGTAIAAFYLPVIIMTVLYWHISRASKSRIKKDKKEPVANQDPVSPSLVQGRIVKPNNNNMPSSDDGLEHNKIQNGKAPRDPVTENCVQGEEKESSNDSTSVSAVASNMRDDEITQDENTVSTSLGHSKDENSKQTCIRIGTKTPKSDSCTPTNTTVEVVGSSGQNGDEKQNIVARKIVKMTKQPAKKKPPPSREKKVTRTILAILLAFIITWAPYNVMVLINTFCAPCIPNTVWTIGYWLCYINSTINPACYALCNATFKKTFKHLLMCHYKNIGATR

[6] = target: 3',5'-cyclic-AMP phosphodiesterase 4A (Homo sapiens, UniProt P27815); assay type: functional
Sequence of 3',5'-cyclic-AMP phosphodiesterase 4A (P27815 whole entry): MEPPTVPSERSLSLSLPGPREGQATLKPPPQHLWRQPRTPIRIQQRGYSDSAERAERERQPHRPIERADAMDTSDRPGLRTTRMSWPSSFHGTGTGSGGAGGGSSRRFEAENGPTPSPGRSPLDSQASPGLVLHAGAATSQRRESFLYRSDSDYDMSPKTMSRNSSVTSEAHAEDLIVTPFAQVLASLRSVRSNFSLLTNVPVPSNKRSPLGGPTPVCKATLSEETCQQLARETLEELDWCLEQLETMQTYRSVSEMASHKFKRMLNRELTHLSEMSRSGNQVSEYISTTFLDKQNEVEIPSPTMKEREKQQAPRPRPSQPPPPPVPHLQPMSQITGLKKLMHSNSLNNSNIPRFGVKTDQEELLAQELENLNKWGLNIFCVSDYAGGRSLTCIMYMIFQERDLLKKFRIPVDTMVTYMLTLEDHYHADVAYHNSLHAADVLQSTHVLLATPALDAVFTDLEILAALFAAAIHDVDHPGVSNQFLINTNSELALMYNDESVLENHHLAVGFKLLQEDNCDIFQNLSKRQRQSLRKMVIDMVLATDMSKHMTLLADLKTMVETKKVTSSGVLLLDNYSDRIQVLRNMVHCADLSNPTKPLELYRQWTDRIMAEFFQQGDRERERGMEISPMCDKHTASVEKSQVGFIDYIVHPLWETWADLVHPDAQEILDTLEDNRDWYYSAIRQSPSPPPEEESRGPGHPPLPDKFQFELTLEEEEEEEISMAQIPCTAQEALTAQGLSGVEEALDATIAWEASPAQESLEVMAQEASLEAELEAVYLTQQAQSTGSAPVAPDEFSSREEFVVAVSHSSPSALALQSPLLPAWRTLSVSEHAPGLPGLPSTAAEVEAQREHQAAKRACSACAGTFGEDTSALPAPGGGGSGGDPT

[7] = target: D(3) dopamine receptor (Homo sapiens, UniProt P35462)
Sequence of D(3) dopamine receptor (P35462 whole entry): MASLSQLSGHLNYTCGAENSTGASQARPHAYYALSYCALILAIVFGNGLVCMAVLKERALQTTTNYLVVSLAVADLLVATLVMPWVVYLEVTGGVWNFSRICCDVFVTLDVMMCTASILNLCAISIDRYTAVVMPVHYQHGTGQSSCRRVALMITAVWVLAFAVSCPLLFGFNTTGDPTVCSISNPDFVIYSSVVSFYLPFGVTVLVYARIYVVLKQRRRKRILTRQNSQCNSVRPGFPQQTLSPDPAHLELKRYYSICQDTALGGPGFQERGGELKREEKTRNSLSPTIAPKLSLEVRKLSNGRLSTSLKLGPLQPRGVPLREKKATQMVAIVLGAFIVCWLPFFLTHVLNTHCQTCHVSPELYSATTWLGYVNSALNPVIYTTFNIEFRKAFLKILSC

[8] = target: T3, Thromboxane A2 receptor (Homo sapiens, UniProt P21731); assay type: functional, cell-based
T3 sequence (P21731 whole entry): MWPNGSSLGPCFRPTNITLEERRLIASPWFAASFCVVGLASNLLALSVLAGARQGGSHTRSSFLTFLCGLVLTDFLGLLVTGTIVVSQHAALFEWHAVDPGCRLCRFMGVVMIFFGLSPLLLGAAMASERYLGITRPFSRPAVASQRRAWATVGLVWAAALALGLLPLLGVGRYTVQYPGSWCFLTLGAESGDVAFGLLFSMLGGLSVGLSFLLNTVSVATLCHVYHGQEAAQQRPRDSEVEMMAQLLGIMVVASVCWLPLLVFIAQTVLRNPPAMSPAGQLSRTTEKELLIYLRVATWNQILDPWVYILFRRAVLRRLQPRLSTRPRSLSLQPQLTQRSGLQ

[9] = target: D(1A) dopamine receptor (Homo sapiens, UniProt P21728)
Sequence of D(1A) dopamine receptor (P21728 whole entry): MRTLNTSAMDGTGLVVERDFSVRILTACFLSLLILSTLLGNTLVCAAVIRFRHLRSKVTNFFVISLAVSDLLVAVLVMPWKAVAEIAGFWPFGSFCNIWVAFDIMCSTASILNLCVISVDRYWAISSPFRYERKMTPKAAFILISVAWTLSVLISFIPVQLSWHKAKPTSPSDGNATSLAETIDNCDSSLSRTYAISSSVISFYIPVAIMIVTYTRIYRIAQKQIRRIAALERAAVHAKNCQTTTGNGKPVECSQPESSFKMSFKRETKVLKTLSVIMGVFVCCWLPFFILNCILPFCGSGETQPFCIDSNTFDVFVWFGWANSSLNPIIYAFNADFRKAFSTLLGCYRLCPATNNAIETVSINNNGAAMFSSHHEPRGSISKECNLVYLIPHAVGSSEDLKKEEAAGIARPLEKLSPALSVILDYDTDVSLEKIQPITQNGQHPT

[10] = target: Histamine H3 receptor (Homo sapiens, UniProt Q9Y5N1)
Sequence of Histamine H3 receptor (Q9Y5N1 whole entry): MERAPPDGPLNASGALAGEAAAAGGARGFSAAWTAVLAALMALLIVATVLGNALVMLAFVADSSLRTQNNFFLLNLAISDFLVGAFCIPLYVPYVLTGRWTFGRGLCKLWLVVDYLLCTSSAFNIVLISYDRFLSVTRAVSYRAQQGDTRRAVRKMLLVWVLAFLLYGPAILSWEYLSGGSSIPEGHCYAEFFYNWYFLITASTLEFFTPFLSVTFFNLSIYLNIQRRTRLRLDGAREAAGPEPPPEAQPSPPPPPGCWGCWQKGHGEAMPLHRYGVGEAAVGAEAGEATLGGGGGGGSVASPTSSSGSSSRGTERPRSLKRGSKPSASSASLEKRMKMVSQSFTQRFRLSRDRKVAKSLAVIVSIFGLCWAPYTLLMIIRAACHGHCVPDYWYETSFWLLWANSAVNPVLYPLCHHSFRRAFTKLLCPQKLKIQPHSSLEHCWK

[11] = target: cGMP-inhibited 3',5'-cyclic phosphodiesterase 3A (Homo sapiens, UniProt Q14432); assay type: functional
Sequence of cGMP-inhibited 3',5'-cyclic phosphodiesterase 3A (Q14432 whole entry): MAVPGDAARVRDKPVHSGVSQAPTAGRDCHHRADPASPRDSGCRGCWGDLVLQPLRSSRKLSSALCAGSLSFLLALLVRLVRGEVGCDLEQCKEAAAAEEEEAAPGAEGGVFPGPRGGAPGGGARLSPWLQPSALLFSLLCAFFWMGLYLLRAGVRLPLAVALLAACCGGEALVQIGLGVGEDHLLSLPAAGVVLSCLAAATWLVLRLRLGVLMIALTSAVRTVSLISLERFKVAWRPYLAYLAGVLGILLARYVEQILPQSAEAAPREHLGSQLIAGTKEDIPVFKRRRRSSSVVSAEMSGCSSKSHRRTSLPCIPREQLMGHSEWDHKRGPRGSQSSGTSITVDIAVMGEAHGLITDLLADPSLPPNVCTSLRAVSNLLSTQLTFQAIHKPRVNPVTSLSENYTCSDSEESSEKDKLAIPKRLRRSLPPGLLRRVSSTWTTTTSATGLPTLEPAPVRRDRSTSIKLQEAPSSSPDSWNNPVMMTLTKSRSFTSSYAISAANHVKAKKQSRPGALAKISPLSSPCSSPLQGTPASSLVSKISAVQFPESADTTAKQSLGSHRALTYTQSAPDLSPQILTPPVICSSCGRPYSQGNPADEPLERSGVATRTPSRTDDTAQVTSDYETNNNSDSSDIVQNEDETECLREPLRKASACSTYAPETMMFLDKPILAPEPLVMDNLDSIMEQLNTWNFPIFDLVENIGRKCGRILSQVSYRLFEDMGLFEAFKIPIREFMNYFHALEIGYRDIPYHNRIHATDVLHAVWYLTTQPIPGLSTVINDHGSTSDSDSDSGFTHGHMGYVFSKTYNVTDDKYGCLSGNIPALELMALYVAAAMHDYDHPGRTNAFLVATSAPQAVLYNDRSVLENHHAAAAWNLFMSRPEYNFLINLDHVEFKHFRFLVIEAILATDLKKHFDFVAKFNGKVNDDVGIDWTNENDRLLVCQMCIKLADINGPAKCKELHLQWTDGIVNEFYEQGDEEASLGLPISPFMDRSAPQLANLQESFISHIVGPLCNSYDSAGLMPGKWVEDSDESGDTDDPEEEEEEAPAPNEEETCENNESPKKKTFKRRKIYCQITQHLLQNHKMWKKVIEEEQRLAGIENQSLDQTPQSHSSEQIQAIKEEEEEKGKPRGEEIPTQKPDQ

[12] = target: T4, Peroxisome proliferator-activated receptor alpha (Homo sapiens, UniProt Q07869); assay type: functional
T4 sequence (Q07869 whole entry): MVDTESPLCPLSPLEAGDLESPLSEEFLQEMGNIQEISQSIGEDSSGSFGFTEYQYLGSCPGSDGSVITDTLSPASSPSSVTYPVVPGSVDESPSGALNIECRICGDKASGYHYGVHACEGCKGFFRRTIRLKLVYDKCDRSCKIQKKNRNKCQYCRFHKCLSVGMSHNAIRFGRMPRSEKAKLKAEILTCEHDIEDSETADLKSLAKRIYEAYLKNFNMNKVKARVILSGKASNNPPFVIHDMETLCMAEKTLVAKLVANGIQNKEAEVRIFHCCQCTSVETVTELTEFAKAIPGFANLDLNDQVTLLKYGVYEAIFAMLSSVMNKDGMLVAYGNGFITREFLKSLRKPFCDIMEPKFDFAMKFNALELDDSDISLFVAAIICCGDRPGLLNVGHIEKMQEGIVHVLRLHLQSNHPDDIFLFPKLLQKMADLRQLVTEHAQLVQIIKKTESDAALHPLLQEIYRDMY

[13] = target: T4, Peroxisome proliferator-activated receptor alpha; assay type: functional; remark: listed apart in the source
Also: assay procedure not described here.

Sequence of Gamma-aminobutyric acid receptor subunit alpha-1 (P62813 whole entry): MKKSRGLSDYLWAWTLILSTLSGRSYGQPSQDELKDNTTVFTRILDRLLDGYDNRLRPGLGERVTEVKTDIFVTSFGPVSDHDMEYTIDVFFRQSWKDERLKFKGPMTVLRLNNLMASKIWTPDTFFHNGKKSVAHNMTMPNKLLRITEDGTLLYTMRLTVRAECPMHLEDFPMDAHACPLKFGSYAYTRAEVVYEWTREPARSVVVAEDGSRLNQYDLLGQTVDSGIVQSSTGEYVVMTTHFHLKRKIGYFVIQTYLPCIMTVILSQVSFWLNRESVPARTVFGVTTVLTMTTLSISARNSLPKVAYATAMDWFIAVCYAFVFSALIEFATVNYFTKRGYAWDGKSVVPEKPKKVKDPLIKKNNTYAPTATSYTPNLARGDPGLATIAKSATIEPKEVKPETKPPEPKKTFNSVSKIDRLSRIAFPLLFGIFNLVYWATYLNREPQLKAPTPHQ
Sequence of Sodium-dependent noradrenaline transporter (P23975 whole entry): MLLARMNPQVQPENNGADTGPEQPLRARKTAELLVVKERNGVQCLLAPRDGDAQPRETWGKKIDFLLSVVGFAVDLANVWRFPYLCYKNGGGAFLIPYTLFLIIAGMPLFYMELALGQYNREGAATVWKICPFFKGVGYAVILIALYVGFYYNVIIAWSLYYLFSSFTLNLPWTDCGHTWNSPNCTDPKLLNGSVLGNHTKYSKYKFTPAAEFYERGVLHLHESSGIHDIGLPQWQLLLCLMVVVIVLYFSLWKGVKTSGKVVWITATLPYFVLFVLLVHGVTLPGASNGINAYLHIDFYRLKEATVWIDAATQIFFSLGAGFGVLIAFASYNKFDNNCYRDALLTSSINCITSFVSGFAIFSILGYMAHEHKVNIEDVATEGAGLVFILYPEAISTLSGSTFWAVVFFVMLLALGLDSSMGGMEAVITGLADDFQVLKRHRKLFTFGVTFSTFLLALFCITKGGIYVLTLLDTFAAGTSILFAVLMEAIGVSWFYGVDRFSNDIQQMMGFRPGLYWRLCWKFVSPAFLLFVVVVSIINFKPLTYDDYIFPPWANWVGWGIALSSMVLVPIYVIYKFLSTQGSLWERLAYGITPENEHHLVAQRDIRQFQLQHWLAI

Row | Molecule | AC50 [1] | AC50 [2] | AC50 [3] | AC50 [4] | AC50 [5] | AC50 [6] | AC50 [7] | AC50 [8] | AC50 [9] | AC50 [10] | AC50 [11] | AC50 [12] | AC50 [13]
1 | Nc1nc2ccc(OC(F)(F)F)cc2s1 [RILUZOLE] | 2.59 µM | > 30 µM | > 30 µM | > 30 µM | > 30 µM | > 30 µM | > 30 µM | > 30 µM | > 30 µM | > 30 µM | > 30 µM |  | 
2 | BIVALIRUDIN | > 30 µM | > 30 µM | > 30 µM | > 30 µM | > 30 µM | > 30 µM | > 30 µM | > 30 µM | > 30 µM | > 30 µM | > 30 µM |  | 
3 | CC(C)(Oc1ccc(C2CC2(Cl)Cl)cc1)C(=O)O (stereo unspecified) [CIPROFIBRATE] |  |  |  |  |  |  |  |  |  |  |  | > 30 µM | > 30 µM
4 | CC(C)c1c(C(=O)Nc2ccccc2)c(-c2ccccc2)c(-c2ccc(F)cc2)n1CC[C@@H](O)C[C@@H](O)CC(=O)O [ATORVASTATIN] |  |  |  |  |  |  |  |  |  |  |  | > 30 µM | > 30 µM
